Source: publication PMC9021288 (Nature Communications, 2022)
“And” between values parts separate entries of the source, which are not always exact repeats. Identical values can stand only once. Like-named read-outs stand apart in the source and are kept apart here.

What was measured:
[1] = Blood concentration and PK in infected NSG mice after single oral dose; assay type: in vivo, mouse
Procedure: The effect of pantothenamides on P. falciparum Pf3D7^0087/N9 [66] in vivo was assessed in female NSG mice (NODscidIL2Rγ^null) at the Swiss Tropical and Public Health Institute (Basel, Switzerland) as described previously (Supplementary Table 30)[15],[67]. Briefly, humanized mice were engrafted daily with human erythrocyte suspensions from days -11 to day 6. After 11 days (day 0), mice were injected intravenously with 3×10^7 infected RBCs in a volume of 0.1 ml. On day 4, groups of n = 2 mice were treated with a single dose pantothenamides or chloroquine (50 mg/kg) by oral gavage. The hematocrit of all dosed mice and an untreated control group (n = 4 mice) was determined by fluorescence-activated cell sorting and parasitemia was analyzed by microscopy on >10,000 RBCs as described before. Samples to quantify compound metabolites were collected and prepared at different time points (1, 2, 4, 6, and 24 h after treatment) for each mouse by mixing 20 µl of whole blood with 20 µl of Milli-Q, followed by immediate freezing of samples on dry ice. […] Serial dilutions were prepared in the same solvent to concentrations 50 times higher than the corresponding CAL and QC concentrations. The concentrations were calculated under consideration of purity and salt factor. The spiking of the CAL and QC sample were performed at room temperature. The eight calibration levels were 5.00, 10.0, 50.0, 100, 500, 1000, 3750, and 5000 ng/mL and three QC levels 15.0, 100, and 3750 ng/mL were analyzed in duplicate, together with the study samples.
For the sample precipitation, to an aliquot of 10 µL mouse blood/water (1/1) study sample, 20 µL of acetonitrile containing the internal standard MMV1542001 at a concentration of 100 ng/mL was added. After vortex mixing, the samples were centrifuged for 10 min at 50,000 g at 8 °C. Subsequently, an aliquot of 20 µL of the supernatant was transferred to an autosampler vial and an aliquot of 5 µL was injected onto the LC-MS/MS system.
The samples were handled by an autosampler CTC PAL (CTC Analytics AG, Zwingen, Switzerland) set at 8 °C. The chromatography column used was a YMC Hydrosphere C18, 2.1 × 33 mm, 3 µm (YMC Co. Ltd., Kyoto, Japan), kept at room temperature. The aqueous mobile phase consisted of water containing 0.1 % formic acid, whereas the organic mobile phase consisted of acetonitrile containing 0.1 % formic acid, pumped by HPLC pump from Agilent 1200 series (Agilent Technologies Inc, Santa Clara, CA, USA). The HPLC gradient was as follows: 95% phase A, 5% phase B for 0.20 min, followed by transition to 5% phase A, 95% phase B in 1 min, 2 min at these concentrations, and a subsequent increase to 95% phase A, 5% phase B in 0.05 min which is kept for the remaining 0.75 min.
The detection of MMV693183 was performed using a TSQ Access mass spectrometer (Thermo Fisher Scientific, San Jose, CA, USA) by selected reaction monitoring. The ion source was heated electrospray ionization, using a negative polarity. Following parameters were used: Voltage 2500 [V], Vaporizer temperature 350 [°C], Sheath gas 60 [au], Auxiliary gas 5 [au], Capillary temperature 350 [°C] and Collision gas pressure 1.0 [mTorr]. […] The transition used for the internal standard was: parent ion 325.030 m/z—daughter ion 195.000 m/z.
The concentration of the analyte was calculated using the internal standardization method. The area ratio of analyte to internal standard against the concentration of calibration samples was used for quantification. The acquisition and processing of data were performed using LCquan 2.5.6 and Xcalibur 2.0.7. Microsoft Office Excel 2007 Prof was used for calculations and statistical evaluation of data. […] The Lower Limit of Quantification was 5.00 ng/mL in […], whereas The Upper Limit of Quantification was 5000 ng/mL in mouse blood/water (1/1).

[2] = tested on: P. falciparum Pf3D7^0087/N9; assay: Single dose in vivo efficacy in humanized NSG mice; set-up: species or system Plasmodium falciparum; settings: for parasitemia outcome: single 50 mg/kg oral gavage on day 4, over three days
Procedure: The effect of pantothenamides on P. falciparum Pf3D7^0087/N9 [66] in vivo was assessed in female NSG mice (NODscidIL2Rγ^null) at the Swiss Tropical and Public Health Institute (Basel, Switzerland) as described previously (Supplementary Table 30)[15],[67]. Briefly, humanized mice were engrafted daily with human erythrocyte suspensions from days -11 to day 6. […] On day 4, groups of n = 2 mice were treated with a single dose pantothenamides or chloroquine (50 mg/kg) by oral gavage. […] Serial dilutions were prepared in the same solvent to concentrations 50 times higher than the corresponding CAL and QC concentrations. The concentrations were calculated under consideration of purity and salt factor. The spiking of the CAL and QC sample were performed at room temperature.

[3] = tested on: P. falciparum NF54-HGL gametocytes; assay: Gametocyte viability assay (72 h, luminescence); assay type: cell-based, Plasmodium falciparum; settings: for gametocyte viability, dose-response: NF54-HGL
Procedure: Gametocyte viability assays on NF54-HGL parasites were performed using an adapted high-throughput protocol as previously described[15],[64]. In short, asexual blood-stage parasite cultures were set up at 1% parasitemia in a semi-automated shaker system at 5% hematocrit. From day four until day eight or nine, parasites were treated with 50 mM N-acetyl glucosamine to eliminate all asexual blood-stage parasites. Subsequently, gametocytes were isolated by a Percoll density gradient centrifugation. At day 11, gametocytes were seeded (5,000 per well) in 30 µl in white 384-well plates containing 30 µl of compounds diluted in medium (0.1% DMSO). After a 72-h incubation, 30 µl of ONE-Glo reagent (Promega) was added according to manufacturer’s protocol and luminescence was quantified using the BioTek Synergy 2 Plate reader. Values were normalized to DMSO- and epoxomicin or dihydroartemisinin-treated controls.

Crystal screening (XRPD) = assay type: physicochemical; settings: 36 conditions
Procedure: Crystal screening for each further characterized pantothenamide was performed by a commercial service (Crystal Pharmatech Co., Ltd.) under 36 conditions using a variety of crystallization methods, including liquid vapor diffusion, slow evaporation, slurry conversion and salt/co-crystal formation and solvents. X-ray power diffraction (XRPD) patterns were collected by Bruker X-ray powder diffractometers.

[4] = day 5 post infection, 50 mg/kg p.o. on day 4, per mouse, 50 mg/kg
[5] = day 6 post infection, per mouse
[6] = day 7 post infection, per mouse
[7] = per replicate experiment, read-out: IC50, sexual blood stages

SMILES	AUC0-24h ([1]; 50 mg/kg p.o.) [ng·h/mL]	Cmax ([1]; 50 mg/kg p.o.) [ng/mL]	T1/2 ([1]; 50 mg/kg p.o.) [h]	Tmax ([1]; 50 mg/kg p.o.) [h]	concentration in blood ([1]; 1 h post treatment, per mouse)	concentration in blood ([1]; 2 h post treatment, per mouse)	concentration in blood ([1]; 4 h post treatment, per mouse)	concentration in blood ([1]; 6 h post treatment, per mouse)	concentration in blood ([1]; 24 h post treatment, per mouse)	Parasitemia [2, 4]	Parasitemia [2, 5]	Parasitemia [2, 6]	parasitemia outcome [2]	Sexual blood stages viability, dose-response ([3]; Log concentration (M) -7.5)	Sexual blood stages viability, dose-response ([3]; Log concentration (M) -8)	Sexual blood stages viability, dose-response ([3]; Log concentration (M) -9)	Sexual blood stages viability, dose-response ([3]; Log concentration (M) -9.5)	Sexual blood stages viability, dose-response ([3]; Log concentration (M) -10)	Crystalline (Crystal screening (XRPD))	IC50 [3, 7]	other results
CC(C)(CO)[C@@H](O)C(=O)NCCNC(=O)c1cc(C#N)ccc1F [MMV976394]	10800	5810	2.95	1.00	6840 ng/mL and 4780 ng/mL	1230 ng/mL and 1500 ng/mL	450 ng/mL and 356 ng/mL	204 ng/mL and 214 ng/mL	10 ng/mL	0.56 and 0.41	0.32	0.17	not fully cleared	108.15 and 96.65	91.85 and 97.6	87.75 and 103.75	90 and 115.4	90 and 95.6	No		Sexual blood stages viability, dose-response ([3]; Log concentration (M) -6): 82.2 and 80.4; Sexual blood stages viability, dose-response ([3]; Log concentration (M) -6.5): 89.6 and 82.4; Sexual blood stages viability, dose-response ([3]; Log concentration (M) -7): 87.4 and 85.95; Sexual blood stages viability, dose-response ([3]; Log concentration (M) -8.5): 92.6 and 88
C[C@@H](CNC(=O)[C@H](O)C(C)(C)CO)NC(=O)c1cc(C#N)ccc1F [MMV693182]					4180 ng/mL	2200 ng/mL and 1000 ng/mL	866 ng/mL	266 ng/mL and 912 ng/mL	10 ng/mL and 22.4 ng/mL	0.28 and 0.38	0.03 and 0.05	0.02	not fully cleared	49.3 and 51	81.9 and 78.35	97.2 and 103.7	95 and 105.75	95.6 and 117.9	Yes	21.4 nM	concentration at 1 h ([1]; female, NSG (NODscidIL2Rγnull), mouse, whole blood, oral, 50 mg/kg, 1 h post treatment, per mouse): 6360 ng/mL; concentration at 4 h ([1]; female, NSG (NODscidIL2Rγnull), mouse, whole blood, oral, 50 mg/kg, 4 h post treatment, per mouse): 552 ng/mL; half-life ([1]; female, NSG (NODscidIL2Rγnull), mouse, whole blood, po, 50 mg/kg p.o.): 3.19 h; AUC(0 - t) ([1]; female, NSG (NODscidIL2Rγnull), mouse, whole blood, po, 50 mg/kg p.o., read-out: AUC0-24h): 15100 ng·h/mL; Cmax ([1]; female, NSG (NODscidIL2Rγnull), mouse, whole blood, po, 50 mg/kg p.o., read-out: Cmax): 5270 ng/mL; Tmax ([1]; female, NSG (NODscidIL2Rγnull), mouse, whole blood, po, 50 mg/kg p.o., read-out: Tmax): 1 h; Sexual blood stages viability, dose-response ([3]; Log concentration (M) -8.5): 96 and 103.7; IC50 ([3]; Plasmodium falciparum, NF54, per replicate experiment, read-out: IC50, sexual blood stages): 32.9 nM; IC50 ([3]; Plasmodium falciparum, NF54, sexual viability assay, range of independent experiments, read-out: Gametocyte IC50 range (N)): 21.4 to 32.9 nM
C[C@@H](CNC(=O)[C@H](O)C(C)(C)CO)NC(=O)c1cccc(F)c1 (stereo in doubt) [MMV1542001]	11800	5150	2.80	1.00	4480 ng/mL and 5820 ng/mL	1520 ng/mL and 1620 ng/mL	492 ng/mL and 574 ng/mL	314 ng/mL and 340 ng/mL	10 ng/mL	0.4 and 0.31	0.06 and 0.01	0	reduced parasitemias below detectable levels			60.65 and 74.3	76.05 and 100.7	85.65 and 89	No	1.98 nM and 9.93 nM	
CC(CNC(=O)C(O)C(C)(C)CO)NC(=O)CCc1ccccc1F (stereo in doubt) [MMV689258]	6730	3780	3.26	1.00	3100 ng/mL and 4460 ng/mL	1090 ng/mL and 698 ng/mL	368 ng/mL and 236 ng/mL	91.8 ng/mL and 110 ng/mL	10 ng/mL	0.26 and 0.2	0.15 and 0.1	0.22 and 0.12	not fully cleared						Yes		gametocyte viability, dose-response ([3]; Log concentration (M) -8): 82.05 and 46 and 45.3; gametocyte viability, dose-response ([3]; Log concentration (M) -8.5): 95.95 and 82.9 and 64.1; gametocyte viability, dose-response ([3]; Log concentration (M) -9): 97.75 and 94.05 and 92.15; gametocyte viability, dose-response ([3]; Log concentration (M) -9.5): 104.7 and 93.15 and 94.35; gametocyte viability, dose-response ([3]; Log concentration (M) -10): 106.25 and 112.55 and 90.95
C[C@@H](CNC(=O)[C@H](O)C(C)(C)CO)NC(=O)c1cccc(C#N)c1 (stereo in doubt) [MMV884962]	8650	3920	3.32	1.00	3920 ng/mL	1180 ng/mL and 1170 ng/mL	468 ng/mL and 370 ng/mL	222 ng/mL and 193 ng/mL	13 ng/mL and 10 ng/mL	0.31 and 0.28	0.05	0	reduced parasitemias below detectable levels			92.55 and 54.1	110.8 and 104.4	97.15 and 70.3	No	5.95 nM and 2.17 nM	
